Patent US10640495B2, “Heterocycle derivatives having TrkA inhibitory activity” (Shionogi & Co., Ltd., priority 2015, dated 2020)
Read-outs that look alike come from different tables or passages of the source.

Molecular target: human TrkA (Homo sapiens (Human), UniProt P04629)
Test: Human TrkA inhibition assay (Test Example 2)
Format: biochemical
Procedure: Seven point five μL per well of human TrkA (PV3144, Lifetechnologies, final concentration: 1 nmol/L) suspended in the assay buffer (100 mmol/L 4-(2-hydroxyethyl)-1-piperazineethanesulfonic acid (HEPES), 10 mmol/L magnecium chloride, 0.003 vol % Brij-35, 0.004 vol % Tween20 and 1 mmol/L dithiothreitol (DTT)) was applied in a 384 well plate and the plate was pre-incubated for 15 min at room temperature with 0.4 μL of each compound (final concentration: 200 μmol/L-1 pmol/L) dissolved in DMSO. Then, fluorescent substrate (FL-peptide 27, 760424, PerkinElmer, final concentration: 1.5 μmol/L) and ATP (final concentration 500 μmol/L) dissolved in the assay buffer was added in each well. After the incubation of 120 min at 37° C., fifteen μL of termination buffer (100 mmol/L HEPES, 40 mmol/L ethylenediaminetetraacetic acid (EDTA), 10 mmol/L magnecium chloride, 0.003 vol % Brij-35, 0.004 vol % Tween20, 1 mmol/L DTT and 0.16 vol % Coating Reagent 3) was added in each well to stop the enzyme reaction. Fluorescent intensities (FI) of phosphorylated and non-phosphorylated fluorescent substrates were measured by LabChip EZReader II (Caliper LifeSciences, Inc.), and conversion ratio (CR) was calculated by the following formula-1. The CR in the well applied with DMSO alone was used as a negative control and the CR in the well without applying TrkA was used as a positive control. The inhibitory effect of each compound on TrkA phosphorylation was calculated by the following formula-2. CR (%)=(FI of phosphorylated substrate/(FI of phosphorylated substrate+FI of non-phosphorylated substrate))×100 (Formula-1) Phosphorylation inhibition (%)=(1−(CR with compound treatment−CR of positive control)/(CR of negative control−CR of positive control))×100 (Formula-2)
IC50 values (nmol/L) were determined by the logistic regression using the inhibition data in 10 points of 3-fold dilution series at a compound concentration range of 20 nmol/L to 1 pmol/L, or 10 points of 3-fold dilution series at the range of 2 μmol/L to 0.1 nmol/L, or 10 points of 3-fold dilution series at the range of 200 μmol/L to 10 nmol/L, or 15 points of 3-fold dilution series at the range of 200 μmol/L to 0.04 nmol/L.
The evaluation results of the compounds in the present invention are indicated as follows. IC50 values of 0 to 100 nM, 100 to 1000 nM and over 1000 nM were shown as “A”, “B” and “C”, respectively.

[1] = human TrkA 1 nmol/L, ATP 500 μmol/L, 120 min at 37° C., read-out: IC50 values (TrkA phosphorylation inhibition)
[2] = Table 153, human TrkA inhibition, read-out: IC50
[3] = Table 157, human TrkA inhibition, read-out: IC50
[4] = Table 155, human TrkA inhibition, read-out: IC50
[5] = Table 154, human TrkA inhibition, read-out: IC50

Chain of human TrkA (P04629 440-796): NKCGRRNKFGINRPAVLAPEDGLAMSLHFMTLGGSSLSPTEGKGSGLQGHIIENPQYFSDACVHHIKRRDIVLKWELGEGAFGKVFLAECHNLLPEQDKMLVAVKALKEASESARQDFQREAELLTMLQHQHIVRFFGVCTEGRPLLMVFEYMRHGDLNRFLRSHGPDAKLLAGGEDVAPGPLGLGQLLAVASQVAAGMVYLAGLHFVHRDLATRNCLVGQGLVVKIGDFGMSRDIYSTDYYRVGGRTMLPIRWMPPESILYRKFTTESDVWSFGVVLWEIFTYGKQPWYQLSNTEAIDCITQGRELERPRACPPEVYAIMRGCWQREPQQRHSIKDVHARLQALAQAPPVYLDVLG

COCCN1C[C@@H](NC(=O)Nc2c(C)c(-c3cnc4c(c3)OCC(=O)N4)nn2-c2ccccc2)[C@H](c2ccnc(F)c2)O1 (racemic) [Compound I-279]
IC50 [1]: 2 nM

COCCN1C[C@@H](NC(=O)Nc2c(C)c(-c3cnn(C)c3)nn2-c2ccc(F)c(F)c2)[C@H](c2ccc(F)c(F)c2)O1 (racemic) [Compound I-86]
IC50 [2]: < 100 nM

COCCN1C[C@@H](NC(=O)Nc2c(C)c(CO)nn2-c2ccccc2)[C@H](c2ccc(F)c(F)c2)O1 [Compound I-619]
IC50 [3]: < 100 nM

COCCN1C[C@@H](NC(=O)Nc2c(C)c(-c3ccc(OC)nc3)nn2-c2ccccc2)[C@H](c2ccc(F)c(F)c2)O1 [Compound I-516]
IC50 (Table 156, human TrkA inhibition, read-out: IC50): < 100 nM

COCCN1C[C@@H](NC(=O)Nc2c(C)c(-c3ccc4nc(CO)cn4c3)nn2-c2ccccc2)[C@H](c2ccnc(F)c2)O1 (racemic) [Compound I-347]
IC50 [4]: < 100 nM

CNC(=O)COc1nn(-c2ccccc2)c(NC(=O)N[C@@H]2CN(CCOC)O[C@H]2c2ccnc(F)c2)c1C (racemic) [Compound I-634]
IC50 [3]: < 100 nM

CCN1C[C@@H](NC(=O)Nc2c(C)c(OCC(=O)NCC(C)(C)O)nn2-c2ccccc2)[C@H](c2ccc(F)c(F)c2)O1 (racemic) [Compound I-652]
IC50 [3]: < 100 nM

CCN1C[C@@H](NC(=O)Nc2c(C)c(-c3cnc(OC)nc3)nn2-c2ccccc2)[C@H](c2ccc(F)c(F)c2)O1 (racemic) [Compound I-405]
IC50 [4]: < 100 nM

COCCN1C[C@@H](NC(=O)Nc2c(C)c(-c3cnc4c(c3)nc(C(F)(F)F)n4C)nn2-c2ccccc2)[C@H](c2ccnc(F)c2)O1 (racemic) [Compound I-226]
IC50 [5]: < 100 nM

CNC(=O)c1cc(-c2nn(-c3ccccc3)c(NC(=O)N[C@@H]3CN(CCOC)O[C@H]3c3cnc(F)c(F)c3)c2C)cnc1OC (racemic) [Compound I-73]
IC50 [1]: 1.2 nM

COCCN1C[C@@H](NC(=O)Nc2c(C)c(-c3cnc(N4CCNCC4)nc3)nn2-c2ccccc2)[C@H](c2cc(F)nc(F)c2)O1 (racemic) [Compound I-415]
IC50 [4]: < 100 nM

COCCN1C[C@@H](NC(=O)Nc2c(C)c(-c3cnc(OC)c(C(=O)N[C@@H]4CCOC4)c3)nn2-c2ccccc2)[C@H](c2ccnc(F)c2)O1 [Compound I-113]
IC50 [2]: < 100 nM

COCCN1C[C@@H](NC(=O)Nc2c(C)c(-c3cnc(C)nc3)nn2-c2ccccc2)[C@H](c2cc(F)nc(F)c2)O1 [Compound I-361]
IC50 [4]: < 100 nM

COCCN1C[C@@H](NC(=O)Nc2c(C)c(-c3cnc4c(cnn4C)c3)nn2-c2ccccc2)[C@H](c2cnc(F)c(F)c2)O1 [Compound I-417]
IC50 [4]: < 100 nM

COCCN1C[C@@H](NC(=O)Nc2c(C)c(-c3cnc(C)nc3)nn2-c2ccccc2)[C@H](c2cc(F)nc(F)c2)O1 (racemic) [Compound I-285]
IC50 [1]: 2.7 nM

COCCN1C[C@@H](NC(=O)Nc2c(C)c(-c3cnc4c(c3)c(CO[Si](C)(C)C(C)(C)C)nn4C)nn2-c2ccccc2)[C@H](c2ccnc(F)c2)O1 (racemic) [Compound I-424]
IC50 [4]: < 100 nM

COCCN1C[C@@H](NC(=O)Nc2c(C)c(-c3cnc(N4CCN(CC#N)CC4)nc3)nn2-c2ccccc2)[C@H](c2ccnc(F)c2)O1 (racemic) [Compound I-416]
IC50 [4]: < 100 nM

CNC(=O)c1cc(-c2nn(-c3ccccc3)c(NC(=O)N[C@@H]3CN(CCOC)O[C@H]3c3ccnc(F)c3)c2C)nn(C)c1=O (racemic) [Compound I-302]
IC50 [1]: 8.2 nM

CNC(=O)c1cc(-c2nn(-c3ccccc3)c(NC(=O)N[C@@H]3CN(CCOC)O[C@H]3c3ccnc(F)c3)c2C)cnc1OC (racemic) [Compound I-100]
IC50 [2]: < 100 nM

COCCN1C[C@@H](NC(=O)Nc2c(C)c(-c3cc(COC(C)=O)c(=O)n(C)c3)nn2-c2ccccc2)[C@H](c2cnc(F)c(F)c2)O1 (racemic) [Compound I-80]
IC50 [2]: < 100 nM

COCCN1C[C@@H](NC(=O)Nc2c(C)c(-c3cnc4c(c3)c(C(F)(F)F)nn4C)nn2-c2ccccc2)[C@H](c2ccnc(F)c2)O1 (racemic) [Compound I-264]
IC50 [5]: < 100 nM

COCCN1C[C@@H](NC(=O)Nc2c(C)c(OCC3CC3)nn2-c2ccccc2)[C@H](c2ccnc(F)c2)O1 (racemic) [Compound I-502]
IC50 [4]: < 100 nM
